Assay results reported in the supplement of paper PMC10307832.

Key:
Test in all cases: relative viability (nuclei count vs DMSO), 5 days (fraction); higher = more cells survive
NCI-H520 = test system: NCI-H520
Procedure, shortened: (§1)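 Values are medians from duplicate plates. Each reflects relative viability, defined as the nuclei count of treated wells over that of vehicle wells. Lung cancer cell lines in 1536-well plates were pin-tool dosed one day after seeding with one drug alone or with a fixed anchor-drug dose plus five library-drug doses (not always all listed) in √10 steps, then fixed, stained and imaged at 4× after 5 days.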

RERF-LC-KJ = test system: RERF-LC-KJ
Procedure, shortened: as §1

A549 = test system: A549
Procedure, shortened: as §1

Calu-6 = test system: Calu-6
Procedure, shortened: as §1

IA-LM = test system: IA-LM
Procedure, shortened: as §1

NCI-H1651 = test system: NCI-H1651
Procedure, shortened: as §1

NCI-H1703 = test system: NCI-H1703
Procedure, shortened: as §1

EBC-1 = test system: EBC-1
Procedure, shortened: as §1

NCI-H1299 = test system: NCI-H1299
Procedure, shortened: as §1

Structure (SMILES)	relative viability (NCI-H520; first compound 0.04 µM)	relative viability (NCI-H520; first compound 0.1265 µM)	relative viability (NCI-H520; first compound 0.4 µM)	relative viability (NCI-H520; first compound 1.265 µM)	relative viability (RERF-LC-KJ; first compound 0.04 µM)	relative viability (RERF-LC-KJ; first compound 0.1265 µM)	relative viability (RERF-LC-KJ; first compound 0.4 µM)	relative viability (RERF-LC-KJ; first compound 1.265 µM)	relative viability (A549; first compound 0.04 µM)	relative viability (A549; first compound 0.1265 µM)	relative viability (A549; first compound 0.4 µM)	relative viability (A549; first compound 1.265 µM)	relative viability (Calu-6; first compound 0.04 µM)	relative viability (Calu-6; first compound 0.1265 µM)	relative viability (Calu-6; first compound 0.4 µM)	relative viability (Calu-6; first compound 1.265 µM)	relative viability (IA-LM; first compound 0.04 µM)	relative viability (IA-LM; first compound 0.1265 µM)	relative viability (IA-LM; first compound 0.4 µM)	relative viability (IA-LM; first compound 1.265 µM)	relative viability (NCI-H1651; first compound 0.04 µM)	relative viability (NCI-H1651; first compound 0.1265 µM)	relative viability (NCI-H1651; first compound 0.4 µM)	relative viability (NCI-H1651; first compound 1.265 µM)	relative viability (NCI-H1703; first compound 0.04 µM)	relative viability (NCI-H1703; first compound 0.1265 µM)	relative viability (NCI-H1703; first compound 0.4 µM)	relative viability (NCI-H1703; first compound 1.265 µM)	relative viability (EBC-1; first compound 0.04 µM)	relative viability (EBC-1; first compound 0.1265 µM)	relative viability (EBC-1; first compound 0.4 µM)	relative viability (EBC-1; first compound 1.265 µM)	relative viability (NCI-H1299; first compound 0.04 µM)	relative viability (NCI-H1299; first compound 0.1265 µM)	relative viability (NCI-H1299; first compound 0.4 µM)	relative viability (NCI-H1299; first compound 1.265 µM)
O=C(O)c1ccc(-c2c[nH]c3ncc(-c4ccccc4)cc23)cc1C1CCCC1 + CS(=O)(=O)N1CCN(Cc2cc3nc(-c4cccc5[nH]ncc45)nc(N4CCOCC4)c3s2)CC1 [Pictilisib] (partner 1 µM)	0.288	0.268	0.299	0.262	0.487	0.594	0.503	0.501	0.508	0.537	0.504	0.291	0.896	1.05	0.822	0.667	0.437	0.363	0.344	0.402	0.557	0.641	0.451	0.455	0.262	0.298	0.272	0.224	0.43	0.371	0.345	0.327	0.832	0.809	0.69	0.584
O=C(O)c1ccc(-c2c[nH]c3ncc(-c4ccccc4)cc23)cc1C1CCCC1 + C[C@@H](Oc1cc(-c2cnn(C3CCNCC3)c2)cnc1N)c1c(Cl)ccc(F)c1Cl [Crizotinib] (partner 1 µM)	0.748	1.02	0.744	0.828	0.795	0.851	0.823	0.766	0.795	0.776	0.668	0.44	0.828	0.777	0.72	0.636	0.698	0.772	0.893	0.835	0.852	0.929	0.822	0.742	0.482	0.85	0.669	0.647	0.185	0.217	0.185	0.191	0.966	0.952	0.916	0.868
O=C(O)c1ccc(-c2c[nH]c3ncc(-c4ccccc4)cc23)cc1C1CCCC1 + C[C@]1(O)C[C@@H](c2nc(-c3ccc4ccc(-c5ccccc5)nc4c3)c3c(N)nccn32)C1 [Linsitinib] (partner 1 µM)	0.833	1.13	0.904	0.712	0.86	0.862	0.906	0.807	0.622	0.719	0.717	0.505	0.86	1.17	0.892	0.781	0.558	0.685	0.712	0.513	0.997	0.968	0.912	0.781	0.647	1.06	1.06	0.898	0.862	0.903	0.956	0.697	0.933	1.02	1.04	0.918
